According to PMC6588697, “Lugdunin amplifies innate immune responses in the skin in synergy with host- and microbiota-derived factors” (Nature Communications, 2019):
“And” between values parts separate entries of the source, which are not always exact repeats. Identical values can stand only once.

Key:
Assay type in all cases: cell-based, human
HTEpCs = test: CXCL8 expression in HTEpCs (qRT-PCR); details: 5 h, 100 ng/mL Pam2Cys or Pam3Cys, two technical replicates, sheet Supp Fig 1g
Procedure: (§1) Quantitative reverse transcription-polymerase chain reaction (qRT-PCR) was performed in 10 µL reaction volume with SYBR^TM Green PCR Master Mix (Thermo Fisher) according to the manufacturer’s instructions using a LightCycler 96 (Roche Life Science). The initial denaturation step was at 95 °C for 5 min, followed by 40 cycles with 10 s each for the denaturation step at 95 °C, the annealing at individual temperature, and the elongation at 72 °C. Primer sequences and respective annealing temperatures are listed in Supplementary Table 1. […]
(§2) 31 g+h+i: HNEpCs (b), HTEpCs (c) or PBMCs (d) were treated with increasing
(§3) 32 concentrations of lugdunin (grey bars) or 100 ng/mL Pam2Cys or Pam3Cys (white
(§4) 33 bars) as positive controls for 5 hours and subsequently expression of CXCL8 was
(§5) 34 analyzed and normalized to actin. Black bar: medium control. Shown is one
(§6) 35 representative experiment of three independent experiments with two technical
(§7) 36 replicates +/-s.e.m. Significant differences to control treatments were analyzed by
(§8) 37 ordinary one-way ANOVA followed by Dunnett’s multiple comparisons test (*P<0.05; […]

PHKs = test: CXCL8 expression in PHKs (qRT-PCR, normalized to actin); details: PHKs, 5 h
Procedure: Fig. 1 Lugdunin sensitizes epithelial cells for innate immune defense. a Primary human keratinocytes (PHKs) were pretreated with S. epidermidis conditioned medium (CM), indicated lugdunin concentrations, or the combination of both for 20 h. Subsequently, cells were infected with S. aureus for 1.5 h followed by cell lysis and determination of colony-forming units (CFUs). Shown is one representative experiment of three independent experiments with six technical replicates ± s.e.m. n.s., not significant. b Dorsal skin of mice was pretreated with S. epidermidis CM, 1.5 µg lugdunin alone or in combination with S. epidermidis CM for 24 h. Subsequently, S. aureus CFUs were determined. Horizontal lines represent the mean of each group ± s.e.m. c PHKs were treated with 2 μM lugdunin or with S. epidermidis CM alone or in combination for 20 h and subsequently expression of indicated antimicrobial peptides (AMPs) (respective protein names in brackets) was analyzed and normalized to actin. Shown is one representative experiment of three independent experiments with two technical replicates ± s.e.m. d PHKs were treated with 2 µM lugdunin or 100 ng/mL Pam2Cys for 5 h and subsequently the concentration of indicated cytokines in the supernatant was analyzed by LEGENDplex^TM (BioLegend). Shown is one representative experiment of three independent experiments with two technical replicates ± s.e.m. e PHKs were treated with increasing concentrations of lugdunin or 100 ng/mL Pam2Cys or Pam3Cys for 5 h and subsequently expression of chemokine (C-X-C motif) ligand 8 (CXCL8) was analyzed and normalized to actin. Shown is one representative experiment of three independent experiments, each with two technical replicates ± s.e.m. f, g Indicated cells were treated with 2 µM lugdunin or 100 ng/mL Pam2Cys as a positive control for 5 h and subsequently the concentration of CXCL8 (f) and interleukin-1α (IL-1α) (g) in the supernatant was analyzed by LEGENDplex^TM (BioLegend) and enzyme-linked immunosorbent assay (ELISA) (R&D Systems). Shown is one representative experiment of three independent experiments with two technical replicates ± s.e.m. Significant differences to control treatments were analyzed by ordinary one-way analysis of variance (ANOVA) followed by Dunnett’s multiple comparisons test (*P < 0.05; **P < 0.01; ***P < 0.001; ****P < 0.0001). n.d. = not detected. Source data are provided as a Source Data file
Fig. 4 Lugdunin amplifies the commensal-induced chemokine (C-X-C motif) ligand (CXCL8) induction. a Primary human keratinocytes (PHKs) were either treated with 2 μM of human antimicrobial peptides (AMPs) (black bars) or lugdunin (blue bars), or 0.8 μM (pro)-gallidermin or nisin (black bars), or in combination with S. epidermidis conditioned medium (CM) (gray and red striped bars) for 5 h, and subsequently expression of CXCL8 was analyzed and normalized to actin. Shown is one representative experiment of three independent experiments with two technical replicates ± s.e.m. b PHKs were treated with 2 μM human AMPs, 2 μM lugdunin, 0.8 μM of the other bacteriocins (gray bars) or the correspondent peptide combinations (white bars), or 50 ng/mL Pam2Cys, 10 ng/mL IL-1α, or S. epidermidis CM as controls (black bars), for 5 h and subsequently expression of CXCL8 was analyzed and normalized to actin. Shown is one representative experiment of three independent experiments with two technical replicates ± s.e.m. Significant differences to control treatments were analyzed by ordinary one-way analysis of variance (ANOVA) followed by Dunnett’s multiple comparisons test (***P < 0.001; ****P < 0.0001). Source data are provided as a Source Data file
After 5 h or 20 h of peptide treatment, PHKs were washed once with PBS, followed by the addition of RNA lysis buffer directly into the well. Total RNA was extracted using the Nucleospin RNA Kit (Macherey-Nagel) according to the manufacturer’s protocol. […]

HNEpCs = test: CXCL8 expression in HNEpCs (qRT-PCR); details: 5 h, 100 ng/mL Pam2Cys or Pam3Cys, two technical replicates, sheet Supp Fig 1f
Procedure: as §1, §2, §3, §4, §5, §6, §7, §8

PBMCs = test: CXCL8 expression in PBMCs (qRT-PCR); details: 5 h, 100 ng/mL Pam2Cys or Pam3Cys, two technical replicates, sheet Supp Fig 1h
Procedure: Quantitative reverse transcription-polymerase chain reaction (qRT-PCR) was performed in 10 µL reaction volume with SYBR^TM Green PCR Master Mix (Thermo Fisher) according to the manufacturer’s instructions using a LightCycler 96 (Roche Life Science). The initial denaturation step was at 95 °C for 5 min, followed by 40 cycles with 10 s each for the denaturation step at 95 °C, the annealing at individual temperature, and the elongation at 72 °C. Primer sequences and respective annealing temperatures are listed in Supplementary Table 1.
Human PBMCs were isolated from the peripheral blood of healthy donors upon obtaining informed consent by Ficoll-Histopaque (Biochrom) gradient centrifugation. Cells were washed once in PBS and adjusted to a cell number of 1 × 10^6 mL^−1 in RPMI-1640 medium (Gibco/Life Technologies) containing 10% FBS (Biochrom/Merck Millipore). […]
as §2, §3, §4, §5, §6, §7, §8

Molecule | CXCL8 fold induction (HTEpCs) | CXCL8 expression normalized to actin (PHKs; 100 ng/mL Pam2Cys or Pam3Cys, medium = 1, technical replicates, Fig 1e) | CXCL8 fold induction (HNEpCs) | CXCL8 fold induction (PBMCs) | CXCL8 expression normalized to actin (PHKs; 2 µM human AMPs, 2 µM lugdunin, 0.8 µM other bacteriocins or their combinations, 50 ng/mL Pam2Cys, 10 ng/mL IL-1α, S. epidermidis CM, two technical replicates, Fig 4b)
Pam3Cys [reference compound] | 3.972 and 3.732 | 1.261 and 1.177 | 22.316 and 30.696 | 2.838 and 2.819 | 
IL-1: interleukin-1α, 10 ng/mL, control in Fig 4b (protein, UniProt P01583 113-271, looked up) Interleukin-1 alpha: SAPFSFLSNVKYNFMRIIKYEFILNDALNQSIIRANDQYLTAAALHNLDEAVKFDMGAYKSSKDDAKITVILRISKTQLYVTAQDEDQPVLLKEMPEIPKTITGSETNLLFFWETHGTKNYFTSVAHPNLFIATKQDYWVCLAGGPPSITDFQILENQA |  |  |  |  | 153.545 and 150.36
